{"source": "patent US11001586B2", "about": "“Alkyl pyrrolopyrimidine analogs and methods of making and using same” (The University of North Carolina at Chapel Hill, priority 2016, dated 2021)", "key": {"Mer tyrosine kinase": {"biological_target": "Mer tyrosine kinase (Homo sapiens (Human), UniProt Q12866)", "sequence (Q12866 21-999)": "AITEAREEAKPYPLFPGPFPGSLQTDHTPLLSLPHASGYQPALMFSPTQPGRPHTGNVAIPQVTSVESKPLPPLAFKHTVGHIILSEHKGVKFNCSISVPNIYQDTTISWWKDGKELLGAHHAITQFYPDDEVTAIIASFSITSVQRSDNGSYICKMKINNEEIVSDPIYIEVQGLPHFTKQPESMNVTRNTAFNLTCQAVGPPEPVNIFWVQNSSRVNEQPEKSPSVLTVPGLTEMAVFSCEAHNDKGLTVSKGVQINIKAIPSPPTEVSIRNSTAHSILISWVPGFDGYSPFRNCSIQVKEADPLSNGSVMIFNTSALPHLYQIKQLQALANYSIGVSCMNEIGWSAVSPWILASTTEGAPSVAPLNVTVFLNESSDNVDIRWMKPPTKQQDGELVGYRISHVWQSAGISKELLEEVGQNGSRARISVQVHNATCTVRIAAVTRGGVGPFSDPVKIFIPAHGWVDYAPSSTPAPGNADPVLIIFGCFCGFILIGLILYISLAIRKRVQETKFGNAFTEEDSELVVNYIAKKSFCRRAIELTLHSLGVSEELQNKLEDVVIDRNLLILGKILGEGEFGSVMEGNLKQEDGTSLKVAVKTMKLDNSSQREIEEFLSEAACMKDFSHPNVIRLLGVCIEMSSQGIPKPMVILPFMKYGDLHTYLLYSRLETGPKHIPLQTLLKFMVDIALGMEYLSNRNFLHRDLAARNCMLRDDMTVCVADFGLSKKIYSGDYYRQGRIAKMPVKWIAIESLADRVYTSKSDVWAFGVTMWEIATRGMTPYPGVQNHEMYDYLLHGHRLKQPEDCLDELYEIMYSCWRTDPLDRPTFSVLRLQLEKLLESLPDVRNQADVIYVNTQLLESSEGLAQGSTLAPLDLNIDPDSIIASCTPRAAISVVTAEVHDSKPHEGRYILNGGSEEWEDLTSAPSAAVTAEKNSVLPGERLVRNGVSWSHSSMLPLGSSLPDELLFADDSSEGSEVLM", "test": "Evaluation of activity against Mer tyrosine kinase", "type": "biochemical"}, "Tyro3 tyrosine kinase": {"biological_target": "Tyro3 tyrosine kinase (Homo sapiens (Human), UniProt Q06418)", "sequence (Q06418 41-890)": "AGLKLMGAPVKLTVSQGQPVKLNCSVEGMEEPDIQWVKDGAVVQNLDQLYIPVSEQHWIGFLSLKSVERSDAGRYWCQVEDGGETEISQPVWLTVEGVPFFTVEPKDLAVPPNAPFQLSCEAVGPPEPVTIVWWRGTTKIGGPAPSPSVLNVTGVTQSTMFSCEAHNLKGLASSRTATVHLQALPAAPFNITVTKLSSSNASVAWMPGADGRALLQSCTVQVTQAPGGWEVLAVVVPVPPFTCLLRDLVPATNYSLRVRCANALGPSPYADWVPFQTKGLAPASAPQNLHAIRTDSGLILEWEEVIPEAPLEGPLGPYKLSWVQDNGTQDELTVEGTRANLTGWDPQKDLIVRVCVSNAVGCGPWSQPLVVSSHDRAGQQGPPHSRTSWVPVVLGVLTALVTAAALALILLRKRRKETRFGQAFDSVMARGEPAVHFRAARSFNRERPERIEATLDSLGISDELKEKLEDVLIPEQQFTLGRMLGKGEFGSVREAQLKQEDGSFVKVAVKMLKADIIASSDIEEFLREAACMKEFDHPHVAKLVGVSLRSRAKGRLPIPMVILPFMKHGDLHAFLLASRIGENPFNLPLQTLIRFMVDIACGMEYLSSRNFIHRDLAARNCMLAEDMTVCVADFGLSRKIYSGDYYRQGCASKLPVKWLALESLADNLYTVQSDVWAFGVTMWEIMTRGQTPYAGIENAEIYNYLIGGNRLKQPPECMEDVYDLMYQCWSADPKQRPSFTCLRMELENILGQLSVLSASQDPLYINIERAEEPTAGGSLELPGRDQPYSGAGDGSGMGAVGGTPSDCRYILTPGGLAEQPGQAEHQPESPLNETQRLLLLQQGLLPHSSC", "test": "Evaluation of activity against Tyro3 tyrosine kinase", "type": "biochemical"}}, "note": "pIC50: −log10 of the molar value.", "data": [{"smiles": "CCC[C@H](C)Nc1ncc2c(C3CCN(C(=O)C4CCN(CCF)CC4)CC3)cn([C@H]3CC[C@H](O)CC3)c2n1", "note": "[compound 36, (1-(2-fluoroethyl)piperidin-4-yl)(4-(7-((1R,4S)-4-hydroxycyclohexyl)-2-(((S)-pentan-2-yl)amino)-7H-pyrrolo[2,3-d]pyrimidin-5-yl)piperidin-1-yl)methanone]", "values": [{"measurement": "pIC50", "setting": "Mer tyrosine kinase", "value": "> 8.00"}, {"measurement": "pIC50", "setting": "Tyro3 tyrosine kinase", "value": "7.00 to 8.00"}]}, {"smiles": "CCC[C@H](C)Nc1ncc2c(C3CCN(C(=O)c4ccc[nH]4)CC3)cn([C@H]3CC[C@H](O)CC3)c2n1", "note": "[compound 60, (4-(7-((1R,4S)-4-hydroxycyclohexyl)-2-(((S)-pentan-2-yl)amino)-7H-pyrrolo[2,3-d]pyrimidin-5-yl)piperidin-1-yl)(1H-pyrrol-2-yl)methanone]", "values": [{"measurement": "pIC50", "setting": "Mer tyrosine kinase", "value": "> 8.00"}, {"measurement": "pIC50", "setting": "Tyro3 tyrosine kinase", "value": "6.00 to 7.00"}]}, {"smiles": "CCC[C@H](C)Nc1ncc2c(C3CCN(C)C3)cn([C@H]3CC[C@H](O)CC3)c2n1", "note": "(stereo partly drawn) [compound 99, (1S,4R)-4-(5-(1-methylpyrrolidin-3-yl)-2-(((S)-pentan-2-yl)amino)-7H-pyrrolo[2,3-d]pyrimidin-7-yl)cyclohexan-1-ol]", "values": [{"measurement": "pIC50", "setting": "Mer tyrosine kinase", "value": "> 8.00"}, {"measurement": "pIC50", "setting": "Tyro3 tyrosine kinase", "value": "6.00 to 7.00"}]}, {"smiles": "CCC[C@H](C)Nc1ncc2c(C3CCN(S(=O)(=O)C4CCNCC4)CC3)cn([C@H]3CC[C@H](O)CC3)c2n1", "note": "[compound 3, (1S,4R)-4-(2-(((S)-pentan-2-yl)amino)-5-(1-(piperidin-4-ylsulfonyl)piperidin-4-yl)-7H-pyrrolo[2,3-d]pyrimidin-7-yl)cyclohexan-1-ol]", "values": [{"measurement": "pIC50", "setting": "Mer tyrosine kinase", "value": "> 8.00"}, {"measurement": "pIC50", "setting": "Tyro3 tyrosine kinase", "value": "7.00 to 8.00"}]}, {"smiles": "Cc1cc(C(=O)N2CCC(c3cn([C@H]4CC[C@H](O)CC4)c4nc(NCCCCO)ncc34)CC2)cc(C)n1", "note": "[compound 100, (2,6-dimethylpyridin-4-yl)(4-(2-((4-hydroxybutyl)amino)-7-((1r,4r)-4-hydroxycyclohexyl)-7H-pyrrolo[2,3-d]pyrimidin-5-yl)piperidin-1-yl)methanone]", "values": [{"measurement": "pIC50", "setting": "Mer tyrosine kinase", "value": "> 8.00"}, {"measurement": "pIC50", "setting": "Tyro3 tyrosine kinase", "value": "4.52 to 6.00"}]}, {"smiles": "CCC[C@H](C)Nc1ncc2c(C3CCN(C(=O)C4CCCN4C)CC3)cn([C@H]3CC[C@H](O)CC3)c2n1", "note": "(stereo partly drawn) [compound 16, 7-((1R,4S)-4-hydroxycyclohexyl)-5-(1-(methylprolyl)piperidin-4-yl)-2-(((S)-pentan-2-yl)amino)-7H-pyrrolo[2,3-d]pyrimidine]", "values": [{"measurement": "pIC50", "setting": "Mer tyrosine kinase", "value": "> 8.00"}, {"measurement": "pIC50", "setting": "Tyro3 tyrosine kinase", "value": "7.00 to 8.00"}]}]}
